Experimental data: PMC5653977 (EMBO Molecular Medicine, 2017)
Structures can show the parent of a compound that is named as a salt.

What follows are compounds tested on NRG1-ERBB4 signaling (assay: Nrg1-ERBB4-PIK3R1 split TEV co-culture compound screen of the NIH Clinical Collection). Details: not given.
Type: cell-based, human
`CN1C(=O)CN=C(c2ccccc2)c2cc(Cl)ccc21` [Diazepam] showed a Z-SCORE of -1.79. Work on `CNCC[C@H](Oc1cccc2ccccc12)c1cccs1` [Duloxetine] yielded a Z-SCORE of -0.82.

Same assay, conditions: NIH Clinical Collection NCC-003 raw data; compounds ranked by Z-score; 'flagged' given instead of a Z-score
In the case of `O=C1Nc2ccc(Cl)cc2[C@@](C#CC2CC2)(C(F)(F)F)O1` [EFAVIRENZ], the Z-SCORE is reported as “flagged”. `COc1cccc2c1C(=O)c1c(O)c3c(c(O)c1C2=O)C[C@@](O)(C(=O)CO)C[C@@H]3O[C@H]1C[C@H](N)[C@@H](O)[C@H](C)O1` [EPIRUBICIN HYDROCHLORIDE] was tested, and the Z-SCORE was “flagged”. `C=C1C[C@@H]2[C@H](CC[C@]3(C)C(=O)CC[C@@H]23)[C@@]2(C)C=CC(=O)C=C12` [EXEMESTANE] showed a Z-SCORE of -1.23.

Same assay, conditions: compound screen of the NIH Clinical Collection, sheet raw data NCC-003; compounds ranked by Z-score
Work on `COc1cc2c(cc1OC)C(=O)C(CC1CCN(Cc3ccccc3)CC1)C2` (centres unmarked) [Donepezil] yielded a Z-SCORE of 0. For `CN(C)CCC=C1c2ccccc2COc2ccccc21` [Doxepin], the Z-SCORE was 2.16. Compound `CN(C)CCOC(C)(c1ccccc1)c1ccccn1.O=C(O)CCC(=O)O` (centres unmarked) [Doxylamine succinate salt] has a Z-SCORE of 0.36. For `O=c1c2ccccc2[se]n1-c1ccccc1` [EBSELEN], the Z-SCORE was -0.25. `CCN1CCN(c2cc3c(cc2F)c(=O)c(C(=O)O)cn3C2CC2)CC1` [ENROFLOXACIN] was tested, and the Z-SCORE was 0.83. In the case of `CN(C)CCC[C@@]1(c2ccc(F)cc2)OCc2cc(C#N)ccc21` [ESCITALOPRAM OXALATE], the Z-SCORE is reported as -0.11. `COC(=O)CCc1ccc(OCC(O)CNC(C)C)cc1` (centres unmarked) [ESMOLOL HYDROCHLORIDE] was tested, and the Z-SCORE was 0.38. `COc1ccc2[n-]c([S+]([O-])Cc3ncc(C)c(OC)c3C)nc2c1.COc1ccc2[n-]c([S+]([O-])Cc3ncc(C)c(OC)c3C)nc2c1.[Mg+2]` (centres unmarked) [ESOMEPRAZOLE Mg] gave a Z-SCORE of 0.45. In the case of `C#C[C@]1(O)CC[C@H]2[C@@H]3CCc4cc(O)ccc4[C@H]3CC[C@@]21C` [ETHYNYLESTRADIOL], the Z-SCORE is reported as 0.75. With `O=C1[C@H](CC[C@H](O)c2ccc(F)cc2)[C@@H](c2ccc(O)cc2)N1c1ccc(F)cc1` [EZETIMIBE] the Z-SCORE was 0.64.

Same assay, conditions: compounds at 10 μM, 24 h; PC12 split TEV assay cells co-cultured with Nrg1-expressing PC12 cells; analysed with cellHTS2
`CN(C)[C@@H]1C(O)=C(C(N)=O)C(=O)[C@@]2(O)C(O)=C3C(=O)c4c(O)ccc(Cl)c4[C@@H](O)[C@H]3C[C@@H]12` [Demeclocycline, reference compound] was tested, and the Z-SCORE was 0.1. `C[C@@H]1C[C@H]2[C@@H]3CCC4=CC(=O)C=C[C@]4(C)[C@@]3(F)[C@@H](O)C[C@]2(C)[C@@]1(O)C(=O)CO` [Dexamethasone, reference compound] gave a Z-SCORE of 0.88. Compound `CC(COc1ccccc1)N(CCCl)Cc1ccccc1` (centres unmarked) [Dibenzyline, reference compound] has a Z-SCORE of -1.18. Compound `CCN(CC)CCOC(=O)C1(C2CCCCC2)CCCCC1` [Dicyclomine hydrochloride, reference compound] has a Z-SCORE of -2.03. In the case of `O=C(O)c1cc(-c2ccc(F)cc2F)ccc1O` [Diflunisal, reference compound], the Z-SCORE is reported as -0.6. `O=C1NC(=O)C(c2ccccc2)(c2ccccc2)N1` [Dilantin, reference compound] gave a Z-SCORE of 0.95. For `Cc1ccccc1C(OCCN(C)C)c1ccccc1` (centres unmarked) [Disipal, reference compound], the Z-SCORE was 0.42. `COc1cc2nc(N3CCN(C(=O)C4COc5ccccc5O4)CC3)nc(N)c2cc1OC` (centres unmarked) [Doxazosin, reference compound] showed a Z-SCORE of 0.51. For `Cc1cccc(CN2CCN(C(c3ccccc3)c3ccc(Cl)cc3)CC2)c1.Cl` (centres unmarked) [Duremesin, reference compound], the Z-SCORE was -0.76. With `CC(COc1ccccc1)NC(C)C(O)c1ccc(O)cc1` (centres unmarked) [Duvadilan, reference compound] the Z-SCORE was -1.36. With `CC[N+](C)(C)c1cccc(O)c1` [EDROPHONIUM CHLORIDE, reference compound] the Z-SCORE was -1.53. `CCOC(=O)[C@H](CCc1ccccc1)N[C@@H](C)C(=O)N1CCC[C@H]1C(=O)O` [ENALAPRIL MALEATE, reference compound] showed a Z-SCORE of 0. `C=C(CC)C(=O)c1ccc(OCC(=O)O)c(Cl)c1Cl` [ETHACRYNIC ACID, reference compound] showed a Z-SCORE of -1.25. `Clc1ccc(COC(Cn2ccnc2)c2ccc(Cl)cc2Cl)cc1` (centres unmarked) [Econazole Nitrate, reference compound] gave a Z-SCORE of -2.43.
